According to DBAASP:
Converted amounts (≈) assume the structure as drawn.

What was measured:
Assay in all cases: ≥ marks a high value that may be exact or a test limit, other limits are often not marked, values filed in µg/mL are converted to µM
[1] = system: Micrococcus luteus ATCC 4698
[2] = system: Staphylococcus aureus ATCC 25923
[3] = system: Candida albicans ATCC 200955
[4] = system: Staphylococcus aureus ATCC 33591
[5] = system: Pseudomonas aeruginosa ATCC 27853
[6] = system: Enterococcus faecium ATCC 700221
[7] = system: Escherichia coli ATCC 25922
[8] = system: Pseudomonas syringae pv. tomato DC3000
[9] = system: Xanthomonas vesicatoria DSM 50861
[10] = system: Pseudomonas syringae pv. syringae DSM 10604
[11] = system: Pectobacterium carotovorum subsp. carotovorum DSM 30168
[12] = system: Clavibacter michiganensis subsp. michiganensis DSM 46294
[13] = system: Pseudomonas corrugata DSM 7228
Pseudomonas aeruginosa = system: Pseudomonas aeruginosa
[14] = system: Klebsiella pneumoniae ATCC 13883
[15] = system: Klebsiella pneumoniae ATCC BAA-2146
[16] = system: Bacillus subtilis ATCC 6051
Klebsiella pneumoniae = system: Klebsiella pneumoniae
Acinetobacter baumannii = system: Acinetobacter baumannii
[17] = system: Candida albicans ATCC 90028
[18] = system: Acinetobacter baumannii ATCC 19606
[19] = system: Staphylococcus aureus ATCC 43300
[20] = system: Cryptococcus neoformans ATCC 208821
[21] = system: Klebsiella pneumoniae ATCC 700603
Escherichia coli K-12 = system: Escherichia coli K-12
[22] = system: Pseudomonas aeruginosa PAO1
[23] = system: Staphylococcus aureus NCTC 8325-4

| Compound | MIC [5] [µM] | MIC [7] [µM] | MIC (Pseudomonas aeruginosa) [µM] | MIC [14] [µM] | MIC [15] [µM] | MIC [16] [µM] | MIC (Klebsiella pneumoniae) [µM] | MIC (Acinetobacter baumannii) [µM] | MIC [17] [µM] | MIC [18] [µM] | MIC [19] [µM] | MIC [20] [µM] | MIC [21] [µM] | other results |
| --- | --- | --- | --- | --- | --- | --- | --- | --- | --- | --- | --- | --- | --- | --- |
| CC[C@H](C)[C@H](NC(=O)[C@H](CO)NC(=O)[C@H](CCCCN)NC(=O)[C@H](CO)NC(=O)[C@H](Cc1cnc[nH]1)NC(=O)[C@H](CCCN=C(N)N)NC(=O)[C@H](Cc1cnc[nH]1)NC(=O)[C@H](CO)NC(=O)[C@H](CCC(N)=O)NC(=O)[C@H](Cc1ccc(O)cc1)NC(=O)[C@H](CC(N)=O)NC(=O)[C@H](CC(N)=O)NC(=O)[C@@H]1CCCN1C(=O)[C@H](CO)NC(=O)CNC(=O)[C@H](Cc1ccccc1)NC(=O)CN)C(=O)N1CCC[C@H]1C(=O)NCC(=O)N[C@@H](CCCN=C(N)N)C(=O)O [GFGSPNNYQSHRHSKSIPGR] |  |  |  |  |  |  |  |  |  |  |  |  |  | MIC [1]: ≥ 75 µM |
| CC[C@H](C)[C@H](NC(=O)[C@H](CCCCN)NC(=O)[C@H](CCCCN)NC(=O)[C@H](CC(C)C)NC(=O)[C@H](CC(C)C)NC(=O)CN)C(=O)N[C@@H](CCCCN)C(=O)N[C@H](C(=O)N[C@@H](CC(C)C)C(=O)N[C@@H](CC(C)C)C(N)=O)[C@@H](C)O [GLLKKIKTLL] | 56.8 (≈ 63.9 µg/mL) |  |  |  |  |  |  |  |  |  |  |  |  | MIC [2]: 19.5 µM (≈ 22 µg/mL); MIC [3]: ≥ 56.8 µM; MIC [4]: ≥ 512 µM; MIC [6]: ≥ 171 µM |
| CC[C@H](C)[C@H](NC(=O)[C@H](Cc1c[nH]c2ccccc12)NC(=O)[C@H](CCCCN)NC(=O)[C@H](CC(C)C)NC(=O)[C@H](CC(C)C)NC(=O)CN)C(=O)N[C@@H](CCCCN)C(=O)N[C@@H](CCCCN)C(=O)N[C@@H](CC(C)C)C(=O)N[C@@H](CC(C)C)C(N)=O [GLLKWIKKLL] | 9.5 (≈ 11.5 µg/mL) | 3.2 (≈ 3.87 µg/mL) |  |  |  |  |  |  |  |  |  |  |  | MIC [3]: 3.2 µM (≈ 3.87 µg/mL); MIC [4]: 2.5 µM (≈ 3.03 µg/mL); MIC [6]: 3.2 µM (≈ 3.87 µg/mL) |
| CC[C@H](C)[C@H](NC(=O)[C@H](CC(C)C)NC(=O)[C@H](CCCN=C(N)N)NC(=O)[C@H](CCCCN)NC(=O)[C@H](CC(C)C)NC(=O)[C@H](CC(C)C)NC(=O)[C@H](CCCCN)NC(=O)[C@H](CCCCN)NC(=O)[C@H](CCCN=C(N)N)NC(=O)[C@@H](N)CCCCN)C(N)=O [KRKKLLKRLI] |  |  |  |  |  |  |  |  |  |  |  |  |  | MIC [8]: 0.772 µM (≈ 0.999 µg/mL); MIC [9]: 7.72 µM (≈ 9.99 µg/mL); MIC [10]: 0.0772 µM (≈ 0.1 µg/mL); MIC [11]: 7.72 µM (≈ 9.99 µg/mL); MIC [12]: 7.72 µM (≈ 9.99 µg/mL); MIC [13]: 0.386 µM (≈ 0.5 µg/mL) |
| CC(C)C[C@H](NC(=O)[C@H](CC(C)C)NC(=O)[C@H](CCCN=C(N)N)NC(=O)[C@H](CCCCN)NC(=O)[C@H](CC(C)C)NC(=O)[C@H](CC(C)C)NC(=O)[C@H](CCCCN)NC(=O)[C@H](CCCCN)NC(=O)[C@H](CCCN=C(N)N)NC(=O)[C@@H](N)CCCCN)C(N)=O [KRKKLLKRLL] |  |  |  |  |  |  |  |  |  |  |  |  |  | MIC [8]: 0.772 µM (≈ 0.999 µg/mL); MIC [9]: 3.86 µM (≈ 5 µg/mL); MIC [10]: 0.0772 µM (≈ 0.1 µg/mL); MIC [11]: 7.72 µM (≈ 9.99 µg/mL); MIC [12]: 3.86 µM (≈ 5 µg/mL); MIC [13]: 0.0772 µM (≈ 0.1 µg/mL) |
| CC[C@H](C)[C@@H]1NC(=O)CNC(=O)[C@H](CCCN=C(N)N)NC(=O)[C@H](Cc2ccc(O)cc2)NC(=O)[C@@H](NC(=O)[C@@H](NC(=O)[C@H](CCCN=C(N)N)NC(=O)[C@H](Cc2ccccc2)NC(=O)[C@H](C)NC(=O)[C@H](Cc2c[nH]c3ccccc23)NC(=O)[C@@H](N)CCCCN)C(C)C)CSSC[C@@H](C(=O)N[C@@H](Cc2ccc(O)cc2)C(=O)N[C@@H](CCCN=C(N)N)C(=O)N[C@@H](CCCN=C(N)N)C(=O)N[C@@H](C)C(=O)N[C@@H](CCCN=C(N)N)C(=O)O)NC1=O [KWAFRVCYRGICYRRAR] | 0.907 (≈ 2 µg/mL) | 0.113 (≈ 0.25 µg/mL) | 3.63 (≈ 7.99 µg/mL) | 0.454 (≈ 0.999 µg/mL) | 0.454 (≈ 0.999 µg/mL) | 0.0567 (≈ 0.125 µg/mL) | > 7.26 | 0.227 (≈ 0.5 µg/mL) | 3.63 (≈ 7.99 µg/mL) | 0.113 (≈ 0.25 µg/mL) | 3.63 (≈ 7.99 µg/mL) | 0.454 (≈ 0.999 µg/mL) | 0.454 (≈ 0.999 µg/mL) |  |
| CC[C@H](C)[C@@H]1NC(=O)CNC(=O)[C@H](CCCN=C(N)N)NC(=O)[C@H](Cc2ccc(O)cc2)NC(=O)[C@@H]2CSSC[C@H](NC1=O)C(=O)N[C@@H](Cc1ccc(O)cc1)C(=O)N[C@@H](CCCN=C(N)N)C(=O)N[C@@H](CCCN=C(N)N)C(=O)N[C@H](C(=O)N[C@@H](CCCN=C(N)N)C(=O)O)CSSC[C@H](NC(=O)[C@H](Cc1c[nH]c3ccccc13)NC(=O)[C@@H](N)CCCCN)C(=O)N[C@@H](Cc1ccccc1)C(=O)N[C@@H](C)C(=O)N[C@@H](C(C)C)C(=O)N2 [KWCFAVCYRGICYRRCR] | 0.115 (≈ 0.25 µg/mL) | 0.0572 (≈ 0.125 µg/mL) | 0.229 (≈ 0.499 µg/mL) | 0.0572 (≈ 0.125 µg/mL) | 0.229 (≈ 0.499 µg/mL) | 0.0137 (≈ 0.0299 µg/mL) | 3.66 (≈ 7.99 µg/mL) | 0.0572 (≈ 0.125 µg/mL) | 1.83 (≈ 3.99 µg/mL) | 0.0275 (≈ 0.0599 µg/mL) | 0.229 (≈ 0.499 µg/mL) | 0.115 (≈ 0.25 µg/mL) | 0.229 (≈ 0.499 µg/mL) |  |
| CC(C)[C@@H]1NC(=O)[C@H](CCCN=C(N)N)NC(=O)[C@H](Cc2ccccc2)NC(=O)[C@@H](NC(=O)[C@H](Cc2c[nH]c3ccccc23)NC(=O)[C@@H](N)CCCCN)CSSC[C@@H](C(=O)N[C@@H](CCCN=C(N)N)C(=O)O)NC(=O)[C@H](CCCN=C(N)N)NC(=O)[C@H](CCCN=C(N)N)NC(=O)[C@H](Cc2ccc(O)cc2)NC(=O)[C@@H]2CSSC[C@H](NC1=O)C(=O)N[C@@H](Cc1ccc(O)cc1)C(=O)N[C@@H](CCCN=C(N)N)C(=O)NCC(=O)NCC(=O)N2 [KWCFRVCYRGGCYRRCR] | 0.452 (≈ 0.998 µg/mL) | 0.113 (≈ 0.25 µg/mL) | 1.81 (≈ 3.99 µg/mL) | 0.113 (≈ 0.25 µg/mL) | 0.904 (≈ 2 µg/mL) | 0.113 (≈ 0.25 µg/mL) | 3.62 (≈ 7.99 µg/mL) | 0.226 (≈ 0.499 µg/mL) | 3.62 (≈ 7.99 µg/mL) | 0.226 (≈ 0.499 µg/mL) | 1.81 (≈ 3.99 µg/mL) | 0.452 (≈ 0.998 µg/mL) | 0.226 (≈ 0.499 µg/mL) |  |
| CC[C@H](C)[C@@H]1NC(=O)CNC(=O)[C@H](CCCN=C(N)N)NC(=O)[C@H](Cc2ccc(O)cc2)NC(=O)[C@@H]2CSSC[C@H](NC1=O)C(=O)N[C@@H](Cc1ccc(O)cc1)C(=O)N[C@@H](CCCN=C(N)N)C(=O)N[C@@H](C)C(=O)N[C@H](C(=O)N[C@@H](CCCN=C(N)N)C(=O)O)CSSC[C@H](NC(=O)[C@H](Cc1c[nH]c3ccccc13)NC(=O)[C@@H](N)CCCCN)C(=O)N[C@@H](Cc1ccccc1)C(=O)N[C@@H](CCCN=C(N)N)C(=O)N[C@@H](C(C)C)C(=O)N2 [KWCFRVCYRGICYRACR] | 1.83 (≈ 3.99 µg/mL) | 0.115 (≈ 0.25 µg/mL) | 1.83 (≈ 3.99 µg/mL) | 0.115 (≈ 0.25 µg/mL) | 0.458 (≈ 0.998 µg/mL) | 0.0137 (≈ 0.0299 µg/mL) | 7.33 (≈ 16 µg/mL) | 0.115 (≈ 0.25 µg/mL) | 0.916 (≈ 2 µg/mL) | 0.115 (≈ 0.25 µg/mL) | 1.83 (≈ 3.99 µg/mL) | 0.115 (≈ 0.25 µg/mL) | 0.916 (≈ 2 µg/mL) |  |
| CC(C)C[C@H](NC(=O)[C@H](CCCCN)NC(=O)[C@H](CCCCN)NC(=O)[C@H](CC(C)C)NC(=O)[C@H](CC(C)C)NC(=O)[C@H](CCCCN)NC(=O)[C@H](CCCCN)NC(=O)[C@@H](N)CC(C)C)C(N)=O [LKKLLKKL] |  |  |  |  |  |  | > 500 |  |  |  |  |  |  | MIC (Escherichia coli K-12): ≥ 500 µM; MIC [22]: > 500 µM; MIC [23]: ≥ 500 µM |
| CC[C@H](C)[C@H](NC(=O)[C@H](CC(C)C)NC(=O)[C@H](CCCCN)NC(=O)[C@H](CCCCN)NC(=O)[C@@H](NC(=O)[C@@H](NC(=O)[C@H](CCCCN)NC(=O)[C@H](CCCCN)NC(=O)[C@H](CCCCN)NC(=O)[C@H](CCCCN)NC(=O)[C@H](CCCCN)NC(=O)[C@@H](N)CCCN=C(N)N)[C@@H](C)CC)[C@@H](C)CC)C(N)=O [RKKKKKIIKKLI] |  |  |  |  |  |  |  |  |  |  |  |  |  | MIC [8]: 1.64 µM (≈ 2.5 µg/mL); MIC [9]: 6.56 µM (≈ 9.99 µg/mL); MIC [10]: 0.328 µM (≈ 0.5 µg/mL); MIC [11]: 6.56 µM (≈ 9.99 µg/mL); MIC [12]: 6.56 µM (≈ 9.99 µg/mL); MIC [13]: 1.64 µM (≈ 2.5 µg/mL) |
